One assay has as its target human plasma kallikrein (Homo sapiens (Human), UniProt P03952). Put plainly: Determination of the plasma kallikrein activity (fluorogenic peptide substrate). It counts as biochemical. The note with it: plasma kallikrein from Kordia, substrate H-Pro-Phe-Arg-AMC, 22° C. The method, then: To determine the plasma kallikrein inhibition of the substances according to the invention, a biochemical test system is used which utilizes the reaction of a peptidic plasma kallikrein substrate to determine the enzymatic activity of human plasma kallikrein. Here, plasma kallikrein cleaves from the peptic plasma kallikrein substrate the C-terminal aminomethylcoumarin (AMC), the fluorescence of which is measured. The determinations are carried out in microtitre plates.
Test substances are dissolved in dimethyl sulphoxide and serially diluted in dimethyl sulphoxide (3000 μM to 0.0078 μM; resulting final concentrations in the test: 50 μM to 0.00013 μM). 1 μl of the diluted substance solutions is placed into each of the wells of white microtitre plates from Greiner (384 wells). 20 μl of assay buffer (50 mM Tris/HCl pH 7.4; 100 mM sodium chloride solution; 5 mM calcium chloride solution; 0.1% of bovine serum albumin) and 20 μl of plasma kallikrein from Kordia (0.6 nM in assay buffer) are then added successively. After […] of incubation, the enzyme reaction is started by addition of 20 μl of the substrate H-Pro-Phe-Arg-AMC dissolved in assay buffer (10 μM in assay buffer) from Bachem, the mixture is incubated at room temperature (22° C.) for […] and fluorescence is then measured (excitation: 360 nm, emission: 460 nm). The measured emissions of the test batches with test substance are compared to those of control batches without test substance (only dimethyl sulphoxide instead of test substance in dimethyl sulphoxide), and IC50 values are calculated from the concentration/activity relationships.

The next assay deals with human factor XIa (Homo sapiens (Human), UniProt P03951). Put plainly: Measurement of FXIa inhibition (fluorogenic peptide substrate). In kind it is biochemical. To be noted: factor XIa from Kordia, substrate Boc-Glu(OBzl)-Ala-Arg-AMC, 22° C., 30 min. The method, then:
The factor XIa inhibition of the substances according to the invention is determined using a biochemical test system which utilizes the reaction of a peptidic factor XIa substrate to determine the enzymatic activity of human factor XIa. Here, factor XIa cleaves from the peptic factor XIa substrate the C-terminal aminomethylcoumarin (AMC), the fluorescence of which is measured. The determinations are carried out in microtitre plates.
1 μl of the diluted substance solutions is placed into each of the wells of white microtitre plates from Greiner (384 wells). […] After […] of incubation, the enzyme reaction is started by addition of 20 μl of the factor XIa substrate Boc-Glu(OBz1)-Ala-Arg-AMC dissolved in assay buffer (10 μM in assay buffer) from Bachem, the mixture is incubated at room temperature (22° C.) for 30 min and fluorescence is then measured (excitation: 360 nm, emission: 460 nm). The measured emissions of the test batches with test substance are compared to those of control batches without test substance (only dimethyl sulphoxide instead of test substance in dimethyl sulphoxide), and IC50 values are calculated from the concentration/activity relationships.

Sequence of human plasma kallikrein (P03952 whole entry, looked up): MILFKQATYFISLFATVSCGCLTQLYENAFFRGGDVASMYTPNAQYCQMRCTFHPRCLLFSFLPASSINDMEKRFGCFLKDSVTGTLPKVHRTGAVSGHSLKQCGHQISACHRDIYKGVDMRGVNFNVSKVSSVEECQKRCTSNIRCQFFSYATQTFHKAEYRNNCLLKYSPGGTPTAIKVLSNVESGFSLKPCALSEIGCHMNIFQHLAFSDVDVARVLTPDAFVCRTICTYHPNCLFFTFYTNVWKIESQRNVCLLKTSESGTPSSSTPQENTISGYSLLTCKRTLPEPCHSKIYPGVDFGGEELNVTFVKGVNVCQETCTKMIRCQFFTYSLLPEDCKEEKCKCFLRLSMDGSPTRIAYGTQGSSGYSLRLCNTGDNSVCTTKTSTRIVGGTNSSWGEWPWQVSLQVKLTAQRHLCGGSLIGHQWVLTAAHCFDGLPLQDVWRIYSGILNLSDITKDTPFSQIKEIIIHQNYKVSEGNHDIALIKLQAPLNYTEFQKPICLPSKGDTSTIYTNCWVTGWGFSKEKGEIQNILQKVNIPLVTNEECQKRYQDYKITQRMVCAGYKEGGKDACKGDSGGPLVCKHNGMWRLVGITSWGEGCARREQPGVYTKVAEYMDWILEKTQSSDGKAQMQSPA
Sequence of human plasma kallikrein (P03952 whole entry partner, looked up): as the sequence (P03952 whole entry, looked up) above
Sequence of human factor XIa (P03951 whole entry, looked up): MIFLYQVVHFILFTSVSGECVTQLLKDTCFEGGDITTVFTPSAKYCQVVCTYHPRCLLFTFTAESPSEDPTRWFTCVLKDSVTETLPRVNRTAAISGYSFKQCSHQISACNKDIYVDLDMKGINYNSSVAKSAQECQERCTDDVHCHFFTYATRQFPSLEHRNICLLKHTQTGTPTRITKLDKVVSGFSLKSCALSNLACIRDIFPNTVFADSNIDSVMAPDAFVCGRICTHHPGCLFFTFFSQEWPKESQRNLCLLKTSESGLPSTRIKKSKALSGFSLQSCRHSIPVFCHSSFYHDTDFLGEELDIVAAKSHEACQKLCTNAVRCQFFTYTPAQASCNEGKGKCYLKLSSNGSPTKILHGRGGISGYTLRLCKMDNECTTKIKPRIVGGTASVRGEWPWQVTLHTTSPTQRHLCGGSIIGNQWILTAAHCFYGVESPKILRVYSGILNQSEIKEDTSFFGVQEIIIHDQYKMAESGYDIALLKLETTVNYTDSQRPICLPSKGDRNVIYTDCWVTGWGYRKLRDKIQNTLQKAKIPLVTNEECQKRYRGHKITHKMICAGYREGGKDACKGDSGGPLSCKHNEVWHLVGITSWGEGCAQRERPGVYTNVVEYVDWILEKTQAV
Sequence of human factor XIa (P03951 whole entry partner, looked up): as the sequence (P03951 whole entry, looked up) above

As to `CCC(C(=O)Nc1ccc(C(=O)OC[C@H](NC(=O)CN2CCCC2)C(=O)O)cc1)n1cc(OC)c(-c2cc(Cl)ccc2C#N)cc1=O` (single isomer, unassigned) [Example 5, O-[4-({2-[4-(5-Chloro-2-cyanophenyl)-5-methoxy-2-oxopyridin-1(2H)-yl]butanoyl}amino)-benzoyl]-N-(pyrrolidin-1-ylacetyl)-L-serine], the IC50 came out at 0.035 µM against human plasma kallikrein and 0.06 µM on human factor XIa. Regarding `CCC(C(=O)Nc1ccc(C(=O)OC[C@H](NC(=O)C2CCCCN2C)C(=O)O)cc1)n1cc(OC)c(-c2cc(Cl)ccc2C#N)cc1=O` (single isomer, unassigned) [Example 7], the IC50 against human plasma kallikrein is 0.052 µM; at human factor XIa it was 0.091 µM. On the same counts, the results for `CCC(C(=O)Nc1ccc(C(=O)OCCC2CCNCC2)cc1)n1cc(OC)c(-c2cc(Cl)ccc2C#N)cc1=O` (single isomer, unassigned) [Example 15, 2-(Piperidin-4-yl)ethyl 4-({2-[4-(5-chloro-2-cyanophenyl)-5-methoxy-2-oxopyridin-1(2H)-yl]butanoyl}amino)benzoate] are 0.044 µM and 0.23 µM. In the case of `CCC(C(=O)Nc1ccc(C(=O)OC[C@@H](C(=O)O)N2CCCC2)cc1)n1cc(OC)c(-c2cc(Cl)ccc2C#N)cc1=O` (single isomer, unassigned) [Example 12], the IC50 was 0.043 µM against human plasma kallikrein and 0.026 µM against human factor XIa. As for `CCC(C(=O)Nc1ccc(C(=O)O[C@H]2CN[C@@H](C(=O)O)C2)cc1)n1cc(OC)c(-c2cc(Cl)ccc2C#N)cc1=O` (single isomer, unassigned) [Example 11], the IC50 worked out at 0.28 µM against human plasma kallikrein and 0.26 µM at human factor XIa. As to `CCC(C(=O)Nc1ccc(C(=O)OCCN2CCCC2)cc1)n1cc(OC)c(-c2cc(Cl)ccc2C#N)cc1=O` (single isomer, unassigned) [Example 16, 2-(Pyrrolidin-1-yl)ethyl 4-({2-[4-(5-chloro-2-cyanophenyl)-5-methoxy-2-oxopyridin-1(2H)-yl]butanoyl}amino)benzoate], on human plasma kallikrein, the IC50 stood at 0.04 µM. Still for that read-out and setting: for `CCC(C(=O)Nc1ccc(C(=O)OCCN2CCN(C)CC2)cc1)n1cc(OC)c(-c2cc(Cl)ccc2C#N)cc1=O` (single isomer, unassigned) [Example 14, 2-(4-Methylpiperazin-1-yl)ethyl 4-({2-[4-(5-chloro-2-cyanophenyl)-5-methoxy-2-oxopyridin-1(2H)-yl]butanoyl}amino)benzoate] the value was 0.038 µM.

`CCC(C(=O)Nc1ccc(C(=O)OC[C@H](N)C(=O)O)cc1)n1cc(OC)c(-c2cc(Cl)ccc2C#N)cc1=O` (single isomer, unassigned) [Example 4, O-[4-({2-[4-(5-Chloro-2-cyanophenyl)-5-methoxy-2-oxopyridin-1(2H)-yl]butanoyl}amino)-benzoyl]-L-serine]: the concentration for half-maximal inhibition (IC50) amounted to 0.092 µM on human plasma kallikrein and 0.054 µM at human factor XIa.

For `CCC(C(=O)Nc1ccc(C(=O)OC2CCN(C)CC2)cc1)n1cc(OC)c(-c2cc(Cl)ccc2C#N)cc1=O` (single isomer, unassigned) [Example 13, 1-Methylpiperidin-4-yl 4-({2-[4-(5-chloro-2-cyanophenyl)-5-methoxy-2-oxopyridin-1(2H)-yl]butanoyl}amino)benzoate], the IC50 at human plasma kallikrein came out at 0.12 µM; at human factor XIa it was 0.23 µM.

In the case of `CCC(C(=O)Nc1ccc(C(=O)OC[C@H](NC(=O)C2(N(C)C)CC2)C(=O)O)cc1)n1cc(OC)c(-c2cc(Cl)ccc2C#N)cc1=O` (single isomer, unassigned) [Example 8, O-[4-({2-[4-(5-Chloro-2-cyanophenyl)-5-methoxy-2-oxopyridin-1(2H)-yl]butanoyl}amino)-benzoyl]-N-{[1-(dimethylamino)cyclopropyl]carbonyl}-L-serine], the IC50 against human plasma kallikrein is 0.055 µM; at human factor XIa, 0.11 µM.

As for `CCC(C(=O)Nc1ccc(C(=O)O[C@H]2CCN[C@@H]2C(=O)O)cc1)n1cc(OC)c(-c2cc(Cl)ccc2C#N)cc1=O` (single isomer, unassigned) [Example 10], the IC50 at human plasma kallikrein was 0.091 µM; on human factor XIa it was 0.014 µM. As to `CCC(C(=O)Nc1ccc(C(=O)OC[C@H](NC(=O)[C@@H]2CCCN2)C(=O)O)cc1)n1cc(OC)c(-c2cc(Cl)ccc2C#N)cc1=O` (stereo partly drawn) [Example 6, Prolyl-O-[4-({2-[4-(5-chloro-2-cyanophenyl)-5-methoxy-2-oxopyridin-1(2H)-yl]butanoyl}amino)-benzoyl]-L-serine], the 50% inhibitory concentration (IC50) on human plasma kallikrein stood at 0.044 µM; at human factor XIa, 0.065 µM.

In the case of `CCC(C(=O)Nc1ccc(C(=O)OC[C@H](NC(=O)[C@H](C(C)C)N(C)C)C(=O)O)cc1)n1cc(OC)c(-c2cc(Cl)ccc2C#N)cc1=O` (single isomer, unassigned) [Example 9, N,N-Dimethyl-L-valyl-O-[4-({2-[4-(5-chloro-2-cyanophenyl)-5-methoxy-2-oxopyridin-1(2H)-yl]butanoyl}amino)benzoyl]-L-serine], the IC50 was 0.051 µM against human plasma kallikrein and 0.063 µM on human factor XIa. Taken in the same sequence, the figures for `CCC(C(=O)Nc1ccc(C(=O)OC(C)[C@H](N)C(=O)O)cc1)n1cc(OC)c(-c2cc(Cl)ccc2C#N)cc1=O` (single isomer, unassigned) [Example 2, O-[4-({2-[4-(5-Chloro-2-cyanophenyl)-5-methoxy-2-oxopyridin-1(2H)-yl]butanoyl}amino)-benzoyl]-L-threonine] were 0.093 µM and 0.054 µM. For the compound `COc1cn(C(C[C@@H]2CCCCO2)C(=O)Nc2ccc(C(=O)OC(C)[C@H](N)C(=O)O)cc2)c(=O)cc1-c1cc(Cl)ccc1C#N` (single isomer, unassigned) [Example 1], the figures for the IC50 at human plasma kallikrein and on human factor XIa were 0.0091 µM and 0.002 µM, respectively.

Turning to `CCC(C(=O)Nc1ccc(C(=O)OC[C@](C)(N)C(=O)O)cc1)n1cc(OC)c(-c2cc(Cl)ccc2C#N)cc1=O` (single isomer, unassigned) [Example 3, O-[4-({2-[4-(5-Chloro-2-cyanophenyl)-5-methoxy-2-oxopyridin-1(2H)-yl]butanoyl}amino)-benzoyl]-2-methyl-L-serine], the IC50 against human plasma kallikrein is 0.06 µM; on human factor XIa, 0.082 µM.

The term IC50 denotes the concentration that inhibits the measured activity by half. A lower IC50 goes with inhibition by little substance.

The values are drawn from US10414731B2, “Substituted oxopyridine derivatives” (priority 2014, dated 2019).
